Each structure is given as a SMILES string.

Data set [1] in a line: Calculation of safety factor (rat LD50 / American cockroach LD50). Particulars: [Toxicity to rat (LD50 value)]/[Insecticidal activity against American cockroach (LD50 value)]. Here is the method:
Calculation of Safety Factor
The safety factor was calculated from the insecticidal activity against American cockroach and the toxicity to rat according to the following equation.
Safety factor=[Toxicity to rat (LD50 value)]/[Insecticidal activity against American cockroach (LD50 value)]

A short description of data set [2]: Toxicity to rat. Particulars: in vivo, male rats, dilution in corn oil, 10 ml/kg, mortality after 7 days. Here is the method: Each of the present compound and reference compound A was diluted with corn oil to predetermined concentrations. Each of the dilutions thus prepared was administered to male rats in an amount of 10 ml/kg. The rats were given water and diet. After 7 days, the dead and alive were counted for mortality. From the mortality, LD50 (mg/kg) value was determined.

The test system of data set [3] is common mosquito (Culex pipiens pallens). Kind of data set: Effect of a mosquito coil on common mosquito (knock-down). The class given is in vivo. Set-up: key: Excellent: All the insects were knocked down (the total in the two replications).; Good: 1 to 3 insects were not knocked down (ditto).; Mediocre: 4 to 6 insects were not knocked down (ditto).; Bad: 7 or more insects were not knocked down (ditto). The settings on record: 0.3 g coil burnt 30 seconds in 0.34 m^3 glass chamber, female adults counted after fifteen minutes. From the text:
Effect of a mosquito coil on common mosquito (Culex pipiens pallens)
A base material for mosquito coil (obtained by stirring a 4:3:3 mixture of Tabu powder, Pyrethrum marc and wood powder, adding water thereto, thoroughly kneading the resulting mixture, and molding and drying the kneaded mixture) was uniformly impregnated with a solution of the present compound in acetone so that the material contains a predetermined amount of the compound. The resultant base material was air-dried to obtain a mosquito coil.
Ten female adult common mosquitoes were released in a glass chamber (70 cm cube, capacity: 0.34 m^3). 0.3 Gram of a mosquito coil containing the present compound prepared according to the procedure described above was set on a holder in the center of bottom of the chamber, ignited at one end thereof, and taken out of the chamber after 30 seconds of combustion. The knocked-down common mosquitoes were counted in fifteen minutes after the setting of the coil.
(§1) The same test procedure was repeated for (S)-2-methyl-4-oxo-3-(2-propynyl)-cyclopent-2-enyl (1RS)-cis-3-(2,2-dichlorovinyl)-2,2-dimethylcyclopropanecarboxylate (hereinafter referred to as reference compound A).
In Table 1, the knocking-down activity is indicated according to the following criterion: […]

For data set [4], the system named is American cockroach (Periplaneta americana). Nature of the data set: Insecticidal activity against American cockroach (topical application). The class given is in vivo. The settings on record: 72 h, read-out: Insecticidal activity against American cockroach (LD50). Here is the method: Insecticidal Activity Against American Cockroach (Periplaneta americana) and Toxicity to Rat Insecticidal Activity Against American Cockroach
Each of the present compound and reference compound A were diluted with acetone to prepare dilutions of prescribed concentrations. Each dilution was applied on the sterna of female adult American cockroaches with a micro-applicator in a volume of 1.0 μl per insect. Then, the insects were given water and diet. After 72 hours, the dead and alive were counted. From the mortality, LD50 (mg/kg) value was determined.

The test system of data set [5] is common mosquito (Culex pipiens pallens). Kind of data set: Effect of spraying of an oil formulation on common mosquito (knock-down). It is filed as in vivo. Particulars: 0.7 ml sprayed in 0.34 m^3 glass chamber, female adults counted after two minutes.
Description: Effect of spraying of an oil formulation on common mosquito (Culex pipiens pallens)
Ten female adult common mosquitoes were released in a glass chamber (70 cm cube, capacity: 0.34 m^3). 0.7 Milliliter of an oil formulation containing a predetermined concentration (shown in Table 2) of the present compound prepared according to Formulation Example 7 was sprayed into the chamber through a small side window of the chamber with a spray gun. The knocked-down common mosquitoes were counted in two minutes after the spraying.
as §1
In Table 2, the knocking-down activity is indicated according to the following criterion: […]

As to `C#CCC1=C(C)[C@@H](OC(=O)[C@@H]2[C@H](C=C(Cl)Cl)C2(C)C)CC1=O` (racemic) [A, (S)-2-methyl-4-oxo-3-(2-propynyl)-cyclopent-2-enyl (1RS)-cis-3-(2,2-dichlorovinyl)-2,2-dimethylcyclopropanecarboxylate], in data set [1], the Safety factor is reported as less than 23. The compound further gave an LD50 at 7 days in data set [2] of less than 100 mg/kg. Further, the Knocking-down activity result in data set [3] (concentration 0.5 % W/W), in data set [3] (concentration 1.0 % W/W), in data set [5] (concentration 0.025 % W/W) and in data set [5] (concentration 0.05 % W/W) was “Bad (7 or more insects were not knocked down (ditto).)” each time. Also, the 50% lethal dose (LD50) in data set [4] was determined as 4.4 mg/kg.
Turning to `C#CCC1=C(C)[C@@H](OC(=O)[C@@H]2[C@@H](C=C(Cl)Cl)C2(C)C)CC1=O` [Present compound, (S)-2-methyl-4-oxo-3-(2-propynyl)-cyclopent-2-enyl (1R)-trans-3-(2,2-dichlorovinyl)-2,2-dimethylcyclopropanecarboxylate], the Safety factor in data set [1] was more than 420. In addition, the LD50 at 7 days in data set [2] was more than 300 mg/kg. Further, the Knocking-down activity entry is on record as “Excellent” in data set [3] (concentration 0.5 % W/W) and “Good (3 or less insects were not knocked down (the total in the two replications).)” in data set [5] (concentration 0.025 % W/W). The LD50 in data set [4] was 0.72 mg/kg.

(Values after patent US6423745B1, “Pyrethroid compound and composition for controlling pest containing the same as an active ingredient” (Sumitomo Chemical Co., Ltd., priority 1998, dated 2002).)
